According to patent US20250195530A1, “POLQ INHIBITORS” (ASTRAZENECA AB, priority 2022, published 2025):
Read-outs that look alike come from different tables or passages of the source. One block for each compound: values may come before it.

Legend:
[1] = system: DLD-1 BRCA2−/− cells; test: Homologous recombination synthetic lethal inhibition of proliferation, DLD-1 BRCA2-/- (Cell Titre Glo 3D); format: cell-based; conditions: Homo sapiens
Summary of the method: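 Cells are seeded in RPMI 1640 (phenol red free, 10% FBS, GlutaMAX) onto pre-dosed compound (10 μM to 0.51 nM, three-fold). Plates are incubated at 37 °C, and medium plus compound are refreshed on day 6. Viability is read by CellTiter-Glo 3D at day 7 (DLD-1) or day 12 (DLD-1 BRCA2−/−), and the IC50 is fitted.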

[2] = system: DLD-1 cells; test: Inhibition of proliferation, DLD-1 BRCA2 wt control (Cell Titre Glo 3D); format: cell-based; conditions: for IC50: Homo sapiens
From the text: This assay identifies anti-proliferative effects of POLQ compounds in the homologous recombination deficient colorectal cell line DLD-1 BRCA2−/− over 8-9 population doublings (7 days for DLD-1 and 12 days for DLD-1 BRCA2−/−). DLD1 BRCA2 wt are used as a control to detect cell toxic effects not specific to homologous recombination deficiency.
DLD-1 BRCA2−/− and DLD-1 cells were kept in continuous culture in Assay Medium (RPMI 1640 phenol red free (Sigma R7509) containing 1% GlutaMAX (Gibco 35050) and 10% Foetal Bovine Serum (Gibco 10270-106)). On the day of the assay cells in culture of ˜80-90% confluent were used. Cell monolayers were washed with 10 mL PBS, then removed and added 2 mL TrypLE Express (Gibco 12604). The cells with TrypLE Express were incubated for 5 minutes in cell culture incubator and then the detached cells resuspend in 15 mL Assay Medium. Cells were counted using a ViCell and the cell images were monitored for clumps of cells, ideally they should be single or <3 cell clusters. The cells were diluted to 3,000 cells/mL of DLD-1 BRCA2−/− and 1,500 cells/mL of DLD-1 in Assay Medium and 100 μL added per well of transparent bottomed, black, tissue culture-treated 96-well plates (CoStar, No. 3904) Assay Ready Plates. The Assay Ready Plates contain a 10 point 10 μM to 0.51 nM dose range with three-fold dilutions in DMSO with a final volume of 100 nL. The plates were incubated at 37° C. with 5% C02 for 6 days. On day 6, 100 μL/well of Assay Medium was added to duplicate Assay Ready Plates. 90 μL of culture medium was removed from the cell plates and replenished with the Assay Media and compounds from the duplicate Assay Ready Plates using the Bravo. The plates were further incubated at 37° C. with 5% CO2. On day 7 the plates containing DLD-1 and Cell Titre Glo 3D (Promega G9683) were equilibrated to room temperature, then 60 μL of Cell Titre Glo 3D was added per well and incubated on a shaking platform for 30 min. Plates were read on the Envision measuring luminescence for 1 second per well. On day 12 the plates containing DLD-1 BRCA2−/− cells and Cell Titre Glo 3D (Promega G9683) were equilibrated to room temperature, then 60 μL Cell Titre Glo 3D added per well and incubated on a shaking platform for 30 min. Plates were read on the Envision measuring luminescence for 1 second per well. The data was exported into a suitable software package (such as Genedata) to perform curve fitting analysis. Inhibition of cell proliferation was expressed as an IC5o value and was determined by calculation of the concentration of compound that was required to give a 50% reduction of the average maximum Total Intensity signal.

[3] = DLD-1, 288 h, DLD-1 BRCA2−/− cells, 12 days, read-out: POLQ PD Prolif Lumin BRCA2 −/− mean pIC50 (converted)
[4] = DLD-1, 168 h, DLD-1 BRCA2 wt cells, 7 days, read-out: POLQ PD Prolif Lumin DLD1 mean pIC50 (converted)
[5] = DLD-1, DLD-1 BRCA2 −/−, mean, read-out: POLQ PD Prolif Lumin BRCA2 −/− mean pIC50 (converted)
[6] = DLD-1, DLD1 BRCA2 wt, mean, read-out: POLQ PD Prolif Lumin DLD1 mean pIC50 (converted)
[7] = DLD-1, second proliferation column (c6), DLD-1 BRCA2 wt control, read-out: POLQ PD Prolif Lumin (converted)
[8] = DLD-1, proliferation, luminescence, taken as DLD-1 BRCA2-/-, read-out: POLQ PD Prolif Lumin (converted)
[9] = DLD-1, first proliferation column (c5), DLD-1 BRCA2-/-, read-out: POLQ PD Prolif Lumin (converted)

IC50 [2, 4]: > 10000 nM
Structure (SMILES): Cc1cc(N2CC(N)C2)ncc1-c1nc2c(OC3(C)CC3)ncnc2n1Cc1ccccc1 [Example 19, 1-(5-(9-Benzyl-6-(1-methylcyclopropoxy)-9H-purin-8-yl)-4-methylpyridin-2-yl)azetidin-3-amine]
IC50 [1, 3]: 501 nM

IC50 [2, 4]: 7940 nM
Structure (SMILES): CC1(Oc2ncnc3c2nc(-c2ccc(OCCN4CCNCC4)cc2Cl)n3CCc2cccnc2)CC1 [Example J8, 8-(2-chloro-4-(2-(piperazin-1-yl)ethoxy)phenyl)-6-(1-methylcyclopropoxy)-9-(2-(pyridin-3-yl)ethyl)-9H-purine]
IC50 [1, 3]: > 10000 nM

IC50 ([2]; DLD-1, second proliferation column (c6), taken as DLD-1 BRCA2 wt, read-out: POLQ PD Prolif Lumin (converted)): > 10000 nM
Structure (SMILES): Cc1ccnc(Cn2c(-c3ccc(CC(=O)N(C)CCO)cc3Cl)nc3c(OC4(C)CC4)ncnc32)c1 [Example T369, 2-(3-chloro-4-(6-(1-methylcyclopropoxy)-9-((4-methylpyridin-2-yl)methyl)-9H-purin-8-yl)phenyl)-N-(2-hydroxyethyl)-N-methylacetamide]
IC50 ([1]; DLD-1, first proliferation column (c5), taken as DLD-1 BRCA2-/-, read-out: POLQ PD Prolif Lumin (converted)): 1000 nM

IC50 [2, 4]: > 10000 nM
Structure (SMILES): CC(=O)N1CCN(CCOc2cc(C)c(-c3nc4c(OC5(C)CC5)ncnc4n3Cc3ccccc3)cn2)CC1 [Example G4, 1-(4-(2-((5-(9-benzyl-6-(1-methylcyclopropoxy)-9H-purin-8-yl)-4-methylpyridin-2-yl)oxy)ethyl)piperazin-1-yl)ethan-1-one]
IC50 [1, 3]: 1260 nM

IC50 [2, 6]: > 10000 nM
Structure (SMILES): C[C@H](CCOc1ccc(-c2nc3c(OC4(C)CC4)ncnc3n2Cc2cc(Cl)ccc2F)c(Cl)c1)C(=O)O [Example U10, (R)-4-(3-chloro-4-(9-(5-chloro-2-fluorobenzyl)-6-(1-methylcyclopropoxy)-9H-purin-8-yl)phenoxy)-2-methylbutanoic acid]
IC50 [1, 5]: 63.1 nM

IC50 [2, 7]: > 10000 nM
Structure (SMILES): Cn1cnnc1Cn1c(-c2ccc(OCCN3CCNCC3)cc2Cl)nc2c(OC3(C)CC3)ncnc21 [Example T150, 8-(2-chloro-4-(2-(piperazin-1-yl)ethoxy)phenyl)-9-((4-methyl-4H-1,2,4-triazol-3-yl)methyl)-6-(1-methylcyclopropoxy)-9H-purine]

IC50 [2, 7]: > 10000 nM
Structure (SMILES): Cc1ccnc(Cn2c(-c3ccc(OC4CCCNCC4)cc3Cl)nc3c(OC4(C)CC4)ncnc32)c1 (single isomer, unassigned) [Example T509, 8-(4-(azepan-4-yloxy)-2-chlorophenyl)-6-(1-methylcyclopropoxy)-9-((4-methylpyridin-2-yl)methyl)-9H-purine]

POLQ PD Prolif Lumin DLD1 mean pIC50 ([2]; DLD1 BRCA2 wt, mean): <5.0
Structure (SMILES): CC1(Oc2ncnc3c2nc(-c2cccc(O[C@H]4CC[C@H](C(=O)O)CC4)c2Cl)n3Cc2cc(Cl)ccc2C#N)CC1 [Example U85, (1r,4r)-4-(2-chloro-3-(9-(5-chloro-2-cyanobenzyl)-6-(1-methylcyclopropoxy)-9H-purin-8-yl)phenoxy)cyclohexane-1-carboxylic acid]

IC50 [2, 4]: > 10000 nM
Structure (SMILES): CC1(Oc2ncnc3c2nc(-c2ccc(OCCN4CCNCC4)cc2Cl)n3CCc2ccccn2)CC1 [Example J11, 8-(2-chloro-4-(2-(piperazin-1-yl)ethoxy)phenyl)-6-(1-methylcyclopropoxy)-9-(2-(pyridin-2-yl)ethyl)-9H-purine]

IC50 [2, 6]: > 10000 nM
Structure (SMILES): COc1ccc(Cl)cc1Cn1c(-c2ccc(OCCCOC(C)(C)C(=O)O)cc2Cl)nc2c(OC3(C)CC3)ncnc21 [Example U92, 2-(3-(3-chloro-4-(9-(5-chloro-2-methoxybenzyl)-6-(1-methylcyclopropoxy)-9H-purin-8-yl)phenoxy)propoxy)-2-methylpropanoic acid]

IC50 [2, 7]: > 10000 nM
Structure (SMILES): Cc1ccnc(Cn2c(-c3ccc(C4CCC(=O)N4)cc3Cl)nc3c(OC4(C)CC4)ncnc32)c1 (single isomer, unassigned) [Example T173, 5-(3-chloro-4-(6-(1-methylcyclopropoxy)-9-((4-methylpyridin-2-yl)methyl)-9H-purin-8-yl)phenyl)pyrrolidin-2-one]

IC50 [2, 6]: > 10000 nM
Structure (SMILES): COc1ccc(F)cc1Cn1c(-c2cccc(OCCCOCC(=O)O)c2Cl)nc2c(OC3(C)CC3)ncnc21 [Example U71, 2-(3-(2-chloro-3-(9-(5-fluoro-2-methoxybenzyl)-6-(1-methylcyclopropoxy)-9H-purin-8-yl)phenoxy)propoxy)acetic acid]

IC50 [2, 4]: 7940 nM
Structure (SMILES): Cc1cc(OC2CNC2)ncc1-c1nc2c(OC3(C)CC3)ncnc2n1Cc1ccccc1 [Example G17, 8-{6-[(azetidin-3-yl)oxy]-4-methylpyridin-3-yl}-9-benzyl-6-[(1-methylcyclopropyl)oxy]-9H-purine]

Structure (SMILES): COc1ccccc1Cn1c(-c2ccc(OCCC(C)C(=O)O)cc2Cl)nc2c(OC3(C)CC3)ncnc21 (racemic) [Example U4, 4-(3-chloro-4-(9-(2-methoxybenzyl)-6-(1-methylcyclopropoxy)-9H-purin-8-yl)phenoxy)-2-methylbutanoic acid]
IC50 [1, 5]: 251 nM

Structure (SMILES): Cc1ccnc(Cn2c(-c3ccc(OCC(=O)N4CC(C)(O)C4)cc3Cl)nc3c(OC4(C)CC4)ncnc32)c1 [Example T477, 2-(3-chloro-4-(6-(1-methylcyclopropoxy)-9-((4-methylpyridin-2-yl)methyl)-9H-purin-8-yl)phenoxy)-1-(3-hydroxy-3-methylazetidin-1-yl)ethan-1-one]
IC50 [1, 8]: 1260 nM

Structure (SMILES): CC1(Oc2ncnc3c2nc(-c2c(F)ccc(OCCC(=O)O)c2Cl)n3Cc2cccc(Cl)c2)CC1 [Example U66, 3-(2-chloro-3-(9-(3-chlorobenzyl)-6-(1-methylcyclopropoxy)-9H-purin-8-yl)-4-fluorophenoxy)propanoic acid]
IC50 [1, 5]: 200 nM

Structure (SMILES): Cc1ccnc(Cn2c(-c3ccc(OCC(=O)NCC(F)(F)F)cc3Cl)nc3c(OC4(C)CC4)ncnc32)c1 [Example T154, 2-(3-chloro-4-(6-(1-methylcyclopropoxy)-9-((4-methylpyridin-2-yl)methyl)-9H-purin-8-yl)phenoxy)-N-(2,2,2-trifluoroethyl)acetamide]
IC50 [1, 9]: 200 nM

Structure (SMILES): Cc1ccnc(Cn2c(-c3ccc(OCC(=O)NC(C)(C)CO)cc3Cl)nc3c(OC4(C)CC4)ncnc32)c1 [Example T519, 2-(3-chloro-4-(6-(1-methylcyclopropoxy)-9-((4-methylpyridin-2-yl)methyl)-9H-purin-8-yl)phenoxy)-N-(1-hydroxy-2-methylpropan-2-yl)acetamide]
IC50 [1, 9]: 316 nM

IC50 [2, 6]: > 10000 nM
Structure (SMILES): COc1ccc(F)cc1Cn1c(-c2cccc(OCC[C@@H](C)C(=O)O)c2Cl)nc2c(OC3(C)CC3)ncnc21 [Example U78, (R)-4-(2-chloro-3-(9-(5-fluoro-2-methoxybenzyl)-6-(1-methylcyclopropoxy)-9H-purin-8-yl)phenoxy)-2-methylbutanoic acid]

Structure (SMILES): CC(CCOc1ccc(-c2nc3c(OC4(C)CC4)ncnc3n2Cc2cccc(C(F)(F)F)c2)c(Cl)c1)C(=O)O (single isomer, unassigned) [Example T396, 4-(3-chloro-4-(6-(1-methylcyclopropoxy)-9-(3-(trifluoromethyl)benzyl)-9H-purin-8-yl)phenoxy)-2-methylbutanoic acid]
IC50 [1, 8]: 251 nM

Structure (SMILES): Cc1noc(C)c1Cn1c(-c2ccc(CC(N)=O)cc2Cl)nc2c(OC3(C)CC3)ncnc21 [Example T27, 2-(3-chloro-4-(9-((3,5-dimethylisoxazol-4-yl)methyl)-6-(1-methylcyclopropoxy)-9H-purin-8-yl)phenyl)acetamide]
IC50 ([1]; DLD-1, DLD-1 BRCA2 −/− cells, mean, read-out: POLQ PD Prolif Lumin BRCA2 −/− mean pIC50 (converted)): > 10000 nM
